Reference: patent US20240294595A1, “GLYCOPEPTIDES AND USES THEREOF” (Arizona Board of Regents on Behalf of the University of …, priority 2013, published 2024)
Entries after “also recorded” stand apart in the source; their conditions may differ. Where no end group is shown, it is not given here.

Legend:
PAC1 [1] = target: T1, PAC1 (Homo sapiens, UniProt P41586); assay: PAC1-CHO calcium flux, FLIPR antagonist mode versus PACAP1-27; format: cell-based; set-up: host or cells: CHO (clonal line PAC1-CHO)
T1 sequence (P41586 21-468): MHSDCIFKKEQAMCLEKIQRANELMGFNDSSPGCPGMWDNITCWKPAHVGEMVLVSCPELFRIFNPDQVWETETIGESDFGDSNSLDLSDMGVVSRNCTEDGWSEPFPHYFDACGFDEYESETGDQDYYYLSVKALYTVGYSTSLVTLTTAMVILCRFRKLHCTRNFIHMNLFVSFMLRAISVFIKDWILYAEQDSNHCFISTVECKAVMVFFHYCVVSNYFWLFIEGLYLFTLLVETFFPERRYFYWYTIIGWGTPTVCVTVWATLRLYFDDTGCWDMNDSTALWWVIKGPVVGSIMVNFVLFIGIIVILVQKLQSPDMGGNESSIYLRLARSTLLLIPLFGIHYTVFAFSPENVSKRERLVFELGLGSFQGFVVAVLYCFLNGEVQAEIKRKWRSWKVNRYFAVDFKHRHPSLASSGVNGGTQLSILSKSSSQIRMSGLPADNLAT
Method: The construct was electroporated into Chinese Hamster Ovary (CHO) cells, and selected for with 500 μg/mL of G418. The resulting population was screened for high expressing clones, and one such clone selected for further analysis. […] This cell line was used for all molecular pharmacology experiments. […] All molecular pharmacology experiments were carried out using a FLIPR Tetra from Molecular Devices (Sunnyvale, CA), set to image calcium flux using the manufacturer's recommended settings and protocols. […] The cells were recovered overnight in growth medium (as above). The next day, the growth medium was replaced with Calcium 6 dye (Molecular Devices) using the manufacturer recommended buffer with 2.5 mM probenecid. […] The resulting calcium flux was recorded, and the maximum-minimum response over the entire observation time calculated and reported as the mean±SEM (4 wells per point). For antagonist mode experiments, a concentration curve (variable concentration mode) or fixed amount (fixed concentration mode) of antagonist was added to the cells, and allowed to equilibrate for 2 minutes. […] The resulting data was analyzed using a Gaddum/Schild EC50 shift model, (Schild, 1957, Gaddum, 1957) designed to analyze competitive antagonism. (Lazareno and Birdsall, 1993) The data output was the pA2 (nM) and the Schild Slope, a measure of how closely the experimental data fits the operational model of competitive antagonism (Prism). For all analyses, each independent experiment performed in quadruplicate is considered to be a sample size of 1. The pharmacology values are calculated separately from each experiment, then combined and reported as the mean±SEM for the entire set of experiments.

PAC1 [2] = target: T1, PAC1; details: previously reported; cited from earlier work

Molecule	Kb (PAC1 [1]; Gaddum/Schild EC50 shift model, read-out: pA2 (converted)) [nM]	IC50 (PAC1 [1]; read-out: antagonism potency (IC50), variable concentration mode) [nM]	Ki (PAC1 [2]) [nM]	shift of PACAP1-27 agonist curves, fixed concentration mode (PAC1 [1]; fixed antagonist concentrations up to 1 μM)	antagonist activity, variable concentration mode (PAC1 [1]; versus 5 nM PACAP1-27, concentration up to 1 μM)
CSCC[C@H](NC(=O)[C@H](CCC(N)=O)NC(=O)[C@H](CCCCN)NC(=O)[C@H](CCCNC(=N)N)NC(=O)[C@H](Cc1ccc(O)cc1)NC(=O)[C@H](CCCNC(=N)N)NC(=O)[C@H](CO)NC(=O)[C@H](Cc1ccc(O)cc1)NC(=O)[C@H](CO)NC(=O)[C@H](CC(=O)O)NC(=O)[C@@H](NC(=O)[C@@H](N)Cc1ccccc1)[C@@H](C)O)C(=O)N[C@@H](C)C(=O)N[C@H](C(=O)N[C@@H](CCCCN)C(=O)N[C@@H](CCCCN)C(=O)N[C@@H](Cc1ccc(O)cc1)C(=O)N[C@@H](CC(C)C)C(=O)N[C@@H](C)C(=O)N[C@@H](C)C(=O)N[C@H](C(=O)N[C@@H](CC(C)C)C(=O)NCC(=O)N[C@@H](CCCCN)C(=O)N[C@@H](CCCNC(=N)N)C(=O)N[C@@H](Cc1ccc(O)cc1)C(=O)N[C@@H](CCCCN)C(=O)N[C@@H](CCC(N)=O)C(=O)N[C@@H](CCCNC(=N)N)C(=O)N[C@H](C(=O)N[C@@H](CCCCN)C(=O)N[C@@H](CC(N)=O)C(=O)N[C@@H](CCCCN)C(N)=O)C(C)C)C(C)C)C(C)C [PACAP6-38]	201 ± 55.4	> 333	1.5		
PACAP6-27: truncated putative antagonist (FTDSYSRYRKQMAVKKYLAAVL; ends and bridges not checked)			60	no detectable shifts in the agonist curves; also recorded: caused no shift in the agonist curves	no significant antagonist activity
